# Laboratory results: article PMC9487510, “A Novel Oral GyrB/ParE Dual Binding Inhibitor Effective against Multidrug-Resistant Neisseria gonorrhoeae and Other High-Threat Pathogens” (Antimicrobial Agents and Chemotherapy, 2022)
# Like-named read-outs stand apart in the source and are kept apart here.
# Test system: N. gonorrhoeae clinical isolates
# Assay: MIC, agar dilution (CLSI)
# Type: cell-based, Neisseria gonorrhoeae
# Settings: for MIC: read-out: MIC
smiles,measurement,setting,value
"C=CC1=C(C(=O)O)N2C(=O)[C@@H](NC(=O)/C(=N\OCC(=O)O)c3csc(N)n3)[C@H]2SC1 [Cfx, cefixime]",MIC range,96 clinical isolates,0.016 to 4 µg/mL
same,MIC,"Neisseria gonorrhoeae, strain CDC1 (GCREF2012 016)",0.125 µg/mL
same,MIC,"Neisseria gonorrhoeae, strain CDC2 (GCREF2012 045)",0.125 µg/mL
same,MIC,"Neisseria gonorrhoeae, strain CDC3 (GCREF2013 013)",0.125 µg/mL
same,MIC,"Neisseria gonorrhoeae, strain CDC4 (GCREF2013 030)",0.125 µg/mL
same,MIC,"Neisseria gonorrhoeae, strain CDC5 (GCREF2012 001)",0.125 µg/mL
same,MIC,"Neisseria gonorrhoeae, strain CDC6 (GCREF2012 002)",0.25 µg/mL
same,MIC,"Neisseria gonorrhoeae, strain CDC8 (GCREF2012 004)",0.125 µg/mL
same,MIC,"Neisseria gonorrhoeae, strain CDC9 (GCREF2012 005)",0.125 µg/mL
same,MIC,"Neisseria gonorrhoeae, strain CDC10 (GCREF2012 006)",0.125 µg/mL
same,MIC,"Neisseria gonorrhoeae, strain CDC11 (GCREF2012 007)",0.125 µg/mL
same,MIC,"Neisseria gonorrhoeae, strain CDC12 (GCREF2012 008)",0.25 µg/mL
same,MIC,"Neisseria gonorrhoeae, strain CDC13 (GCREF2012 009)",0.063 µg/mL
same,MIC,"Neisseria gonorrhoeae, strain CDC14 (GCREF2012 010)",0.25 µg/mL
same,MIC,"Neisseria gonorrhoeae, strain CDC15 (GCREF2012 011)",0.031 µg/mL
same,MIC,"Neisseria gonorrhoeae, strain CDC16 (GCREF2012 012)",4 µg/mL
same,MIC,"Neisseria gonorrhoeae, strain CDC18 (GCREF2012 014)",0.063 µg/mL
same,MIC,"Neisseria gonorrhoeae, strain CDC19 (GCREF2012 015)",0.125 µg/mL
same,MIC,"Neisseria gonorrhoeae, strain CDC20 (GCREF2012 017)",0.125 µg/mL
same,MIC,"Neisseria gonorrhoeae, strain CDC21 (GCREF2012 018)",0.25 µg/mL
same,MIC,"Neisseria gonorrhoeae, strain CDC22 (GCREF2012 019)",0.031 µg/mL
same,MIC,"Neisseria gonorrhoeae, strain CDC23 (GCREF2012 020)",0.125 µg/mL
same,MIC,"Neisseria gonorrhoeae, strain CDC24 (GCREF2012 021)",0.063 µg/mL
same,MIC,"Neisseria gonorrhoeae, strain CDC25 (GCREF2012 022)",0.25 µg/mL
same,MIC,"Neisseria gonorrhoeae, strain CDC26 (GCREF2012 023)",0.063 µg/mL
same,MIC,"Neisseria gonorrhoeae, strain CDC27 (GCREF2012 024)",0.063 µg/mL
same,MIC,"Neisseria gonorrhoeae, strain CDC28 (GCREF2012 025)",0.25 µg/mL
same,MIC,"Neisseria gonorrhoeae, strain CDC29 (GCREF2012 026)",0.125 µg/mL
same,MIC,"Neisseria gonorrhoeae, strain CDC30 (GCREF2012 027)",0.125 µg/mL
same,MIC,"Neisseria gonorrhoeae, strain CDC31 (GCREF2012 028)",0.25 µg/mL
same,MIC,"Neisseria gonorrhoeae, strain CDC32 (GCREF2012 029)",0.125 µg/mL
same,MIC,"Neisseria gonorrhoeae, strain CDC33 (GCREF2012 030)",0.5 µg/mL
same,MIC,"Neisseria gonorrhoeae, strain CDC34 (GCREF2012 031)",0.063 µg/mL
same,MIC,"Neisseria gonorrhoeae, strain CDC35 (GCREF2012 032)",0.25 µg/mL
same,MIC,"Neisseria gonorrhoeae, strain CDC36 (GCREF2012 033)",0.063 µg/mL
same,MIC,"Neisseria gonorrhoeae, strain CDC37 (GCREF2012 034)",0.125 µg/mL
same,MIC,"Neisseria gonorrhoeae, strain CDC38 (GCREF2012 035)",0.063 µg/mL
same,MIC,"Neisseria gonorrhoeae, strain CDC39 (GCREF2012 036)",0.25 µg/mL
same,MIC,"Neisseria gonorrhoeae, strain CDC40 (GCREF2012 037)",0.125 µg/mL
same,MIC,"Neisseria gonorrhoeae, strain CDC41 (GCREF2012 038)",0.25 µg/mL
same,MIC,"Neisseria gonorrhoeae, strain CDC42 (GCREF2012 039)",0.25 µg/mL
same,MIC,"Neisseria gonorrhoeae, strain CDC43 (GCREF2012 040)",0.25 µg/mL
same,MIC,"Neisseria gonorrhoeae, strain CDC45 (GCREF2012 042)",0.25 µg/mL
same,MIC,"Neisseria gonorrhoeae, strain CDC46 (GCREF2012 043)",0.125 µg/mL
same,MIC,"Neisseria gonorrhoeae, strain CDC47 (GCREF2012 044)",0.125 µg/mL
same,MIC,"Neisseria gonorrhoeae, strain CDC48 (GCREF2012 046)",0.125 µg/mL
same,MIC,"Neisseria gonorrhoeae, strain CDC49 (GCREF2012 047)",0.25 µg/mL
same,MIC,"Neisseria gonorrhoeae, strain CDC50 (GCREF2012 048)",0.25 µg/mL
same,MIC,"Neisseria gonorrhoeae, strain CDC51 (GCREF2012 049)",0.125 µg/mL
same,MIC,"Neisseria gonorrhoeae, strain CDC52 (GCREF2012 050)",0.25 µg/mL
same,MIC,"Neisseria gonorrhoeae, strain CDC53 (GCREF2012 051)",0.25 µg/mL
same,MIC,"Neisseria gonorrhoeae, strain CDC54 (GCREF2012 052)",0.25 µg/mL
same,MIC,"Neisseria gonorrhoeae, strain CDC55 (GCREF2013 001)",0.125 µg/mL
same,MIC,"Neisseria gonorrhoeae, strain CDC56 (GCREF2013 002)",0.25 µg/mL
same,MIC,"Neisseria gonorrhoeae, strain CDC57 (GCREF2013 003)",0.125 µg/mL
same,MIC,"Neisseria gonorrhoeae, strain CDC58 (GCREF2013 004)",0.25 µg/mL
same,MIC,"Neisseria gonorrhoeae, strain CDC59 (GCREF2013 044)",0.25 µg/mL
same,MIC,"Neisseria gonorrhoeae, strain CDC60 (GCREF2013 005)",0.125 µg/mL
same,MIC,"Neisseria gonorrhoeae, strain CDC61 (GCREF2013 006)",0.125 µg/mL
same,MIC,"Neisseria gonorrhoeae, strain CDC62 (GCREF2013 007)",0.25 µg/mL
same,MIC,"Neisseria gonorrhoeae, strain CDC63 (GCREF2013 008)",0.125 µg/mL
same,MIC,"Neisseria gonorrhoeae, strain CDC64 (GCREF2013 009)",0.125 µg/mL
same,MIC,"Neisseria gonorrhoeae, strain CDC65 (GCREF2013 010)",0.125 µg/mL
same,MIC,"Neisseria gonorrhoeae, strain CDC66 (GCREF2013 011)",0.125 µg/mL
same,MIC,"Neisseria gonorrhoeae, strain CDC67 (GCREF2013 014)",0.125 µg/mL
same,MIC,"Neisseria gonorrhoeae, strain CDC68 (GCREF2013 016)",0.063 µg/mL
same,MIC,"Neisseria gonorrhoeae, strain CDC69 (GCREF2013 017)",0.063 µg/mL
same,MIC,"Neisseria gonorrhoeae, strain CDC70 (GCREF2013 018)",0.125 µg/mL
same,MIC,"Neisseria gonorrhoeae, strain CDC71 (GCREF2013 019)",0.016 µg/mL
same,MIC,"Neisseria gonorrhoeae, strain CDC72 (GCREF2013 020)",0.25 µg/mL
same,MIC,"Neisseria gonorrhoeae, strain CDC73 (GCREF2013 021)",0.125 µg/mL
same,MIC,"Neisseria gonorrhoeae, strain CDC74 (GCREF2013 022)",0.125 µg/mL
same,MIC,"Neisseria gonorrhoeae, strain CDC75 (GCREF2013 023)",0.125 µg/mL
same,MIC,"Neisseria gonorrhoeae, strain CDC76 (GCREF2013 024)",0.125 µg/mL
same,MIC,"Neisseria gonorrhoeae, strain CDC77 (GCREF2013 025)",0.125 µg/mL
same,MIC,"Neisseria gonorrhoeae, strain CDC78 (GCREF2013 026)",0.063 µg/mL
same,MIC,"Neisseria gonorrhoeae, strain CDC79 (GCREF2013 027)",0.125 µg/mL
same,MIC,"Neisseria gonorrhoeae, strain CDC80 (GCREF2013 028)",0.125 µg/mL
same,MIC,"Neisseria gonorrhoeae, strain CDC81 (GCREF2013 029)",0.25 µg/mL
same,MIC,"Neisseria gonorrhoeae, strain CDC82 (GCREF2013 031)",0.125 µg/mL
same,MIC,"Neisseria gonorrhoeae, strain CDC83 (GCREF2013 032)",0.125 µg/mL
same,MIC,"Neisseria gonorrhoeae, strain CDC84 (GCREF2013 033)",0.125 µg/mL
same,MIC,"Neisseria gonorrhoeae, strain CDC86 (GCREF2013 035)",0.125 µg/mL
same,MIC,"Neisseria gonorrhoeae, strain CDC87 (GCREF2013 036)",0.25 µg/mL
same,MIC,"Neisseria gonorrhoeae, strain CDC88 (GCREF2013 037)",0.125 µg/mL
same,MIC,"Neisseria gonorrhoeae, strain CDC89 (GCREF2013 038)",0.125 µg/mL
same,MIC,"Neisseria gonorrhoeae, strain CDC90 (GCREF2013 039)",0.125 µg/mL
same,MIC,"Neisseria gonorrhoeae, strain CDC91 (GCREF2013 040)",4 µg/mL
same,MIC,"Neisseria gonorrhoeae, strain CDC92 (GCREF2013 041)",0.125 µg/mL
same,MIC,"Neisseria gonorrhoeae, strain CDC93 (GCREF2013 042)",0.125 µg/mL
same,MIC,"Neisseria gonorrhoeae, strain CDC94 (GCREF2013 043)",0.125 µg/mL
same,MIC,"Neisseria gonorrhoeae, strain CDC95 (GCREF2013 045)",0.25 µg/mL
same,MIC,"Neisseria gonorrhoeae, strain CDC96 (GCREF2013 046)",0.125 µg/mL
same,MIC,"Neisseria gonorrhoeae, strain CDC97 (GCREF2013 047)",0.125 µg/mL
same,MIC,"Neisseria gonorrhoeae, strain CDC98 (GCREF2013 048)",0.125 µg/mL
same,MIC,"Neisseria gonorrhoeae, strain CDC99 (GCREF2013 012)",0.125 µg/mL
same,MIC,"Neisseria gonorrhoeae, strain CDC100 (GCREF2013 015)",0.25 µg/mL
same,MIC50,"Neisseria gonorrhoeae, 96 clinical isolates, read-out: MIC50",0.125 µg/mL
same,MIC90,"Neisseria gonorrhoeae, 96 clinical isolates, read-out: MIC90",0.25 µg/mL
